Assay results reported in patent US4855304A, “Dinucleoside pyrophosphates and pyrophosphate homologs as plant antivirals” (Repligen Corporation, priority 1985, dated 1989).
Where two headings read alike, the source gives them in different places.

Tests used:
[1] = test system: TMV (tobacco mosaic virus) replication in TMV-infected tobacco leaf discs; test: Antiviral activity in TMV-infected leaf discs (TMV content by ELISA); format: cell-based, tobacco mosaic virus; leaf discs of N. tabacum var. samsun; design: key to TMV content: N.I.: no inhibition; details: for inhibition at 0.1 µM / inhibition at 0.2 µM: Tobacco mosaic virus, read-out: percent inhibition as related to control
Procedure: Assays for antiviral activity in TMV-infected leaf discs were done using leaves of N. tabacum var. samsun in which TMV is systemically spread. Leaves were mechanically inoculated with purified TMV (5 μg/ml in 0.01M sodium phosphate buffer, pH 7.6, containing 0.1 g/ml of carborundum as an abrasive). Immediately after infection, leaf discs (6.5 mm diameter) were punched out of the inoculated leaves and placed in a beaker containing 0.01M sodium phosphate, pH 7.6.
selected at random from this common pool and placed onto separate petri dishes, each containing 18 ml of 10 mM 4-(2-hydroxyethyl)-1-piperazine ethanesulfonic acid (HEPES)-KOH, pH 7.05, 188 mg/L Na2 HPO4 --7H2 O. […] At the end of the 1 hr incubation, the buffer containing the antiviral dinucleotide was replaced by a buffer lacking the antiviral dinucleotide for another hr. The discs were then washed with 0.01M sodium phosphate, pH 7.6, and were allowed to incubate for an additional 72 hr in phosphate buffer (Devash, Y., Biggs, S. and Sela, I. [1982] Science 216: 1415-1416; Devash, Y. et al. [1984] J. Biol. Chem. 259: 3482-3486). The discs were homogenized in 0.01M sodiuM phosphate buffer, pH 7.6, and the TMV content was determined by enzyme-linked immunosorbent assay (ELISA) as described below.
(§1) The TMV content of the homogenates was determined by ELISA essentially by the method of Clark and Adams ([1977] J. Gen. Virol. 34: 475-483) but with the following order of layers on the microtiter plates.
(§2) (a) the γ-globulin fraction of a serum obtained from a chicken immunized against TMV was absorbed directly to the plate.
(§3) (b) The next layer was the tested sample (at various dilutions) or a series of purified TMV suspensions at known concentrations (calibration curve).
(§4) (c) The third layer was the γ-globulin from the serum of a TMV-immunized rabbit.
(§5) (d) The final layer was goat antibody to rabbit immunoglobulin G conjugated with alkaline phosphatase (Sigma). The release of phosphate from p-nitrophenyl phosphate due to the antibody-conjugated alkaline phosphatase was monitored spectrophotometrically with a Microplate reader (Dynatech Diagnostics, Inc. South Windham, ME) and was proportional to TMV concentration in a log linear manner for about two logs (<2 ng to>200 ng). (Devash, Y., Biggs, S. and Sela, I. [1982] Science 216: 1415-1416)
The γ-globulin fraction of serum obtained from chickens and rabbits immunized against TMV were generous gifts from Professor Ilan Sela, The Hebrew University of Jerusalem, Agriculture Faculty, Rehobot, Israel.

[2] = test system: TMV (tobacco mosaic virus) replication in intact N. glutinosa plants; test: Antiviral activity in N. glutinosa intact plants, infectivity test (local lesions); format: in vivo, tobacco mosaic virus; Nicotiana glutinosa
Procedure: (§6) Nicotiana glutinosa and N. tabacum var. samsum plants were grown in potting medium in greenhouse conditions (25±3° C., and constant illumination). The plants were fertilized with a commercial fertilizer every two weeks. Plants were used at 5-8 leaf stage (Devash, Y., Biggs, S. and Sela, I. [1982] Science 216: 1415-1416; Devash, Y. et al. [1984] Jour. Biol. Chem. 259: 3482-3486).
The ability of the antiviral dinucleotides to inhibit TMV replication in intact N. glutinosa plants (containing N-gene for TMV localization) was determined by infectivity tests. Solutions containing 5 μg/ml TMV, 0.1 μg/ml carborundum, and antiviral dinucleotide were applied to 5 half-leaves of N. glutinosa. The opposite half-leaves served as controls and were inoculated with infecting solution containing TMV and carborundum but no dinucleotides. The infection was allowed to proceed 48 hr. Inhibition of TMV replication was calculated as the percent of local lesions produced in antiviral compound treated half-leaves, as compared to control half-leaves.

[3] = test system: TMV (tobacco mosaic virus) in N. tabacum plants; test: Root application to N. tabacum intact plants (TMV content by ELISA); format: in vivo, tobacco mosaic virus; Nicotiana tabacum; details: 1 μM, roots, 2 hr
Procedure: as §6
Nicotiana tabacum plants were used as a source of plant tissue in which TMV is spread systemically.
(a) Root application: N. tabacum plants were removed from their pots and transferred into 50 ml tubes containing 10 ml of 10 mM HEPES-KOH, pH 7.6, and the antiviral dinucleotides. Two hr later, plants were transferred into 50 ml tubes lacking the antiviral compound and were inoculated by TMV as described above. Twenty-four hr later leaves were homogenized in 0.01M sodium phosphate buffer, pH 7.6, (1 g leaves/3 ml buffer) and TMV content was determined by ELISA.
as §1, §2, §3, §4, §5
In order to establish the relationship of the induced resistance to the N-gene for viral localization and to the transmission ability of the compounds, a comparison between leaf application and root application of antiviral dinucleotides to N. tabacum plants was made. N. tabacum plants were removed into vials containing 10 ml of 10 mM HEPES-KOH, pH 7.6, and 1 μM of antiviral dinucleotide. The plant roots were allowed to remain in the solutions for 2 hr and then were transferred to vials containing the buffer without the antiviral compounds.
The plants then were infected with TMV as above. (See section 4. Antiviral activity on N. tabacum intact plants, paragraph [a].) Another group of N. tabacum plants was tested as described in the above-noted section, paragraph (b).

Nc1ncnc2c1ncn2[C@@H]1O[C@H](COP(=O)(O)OP(=O)(O)OP(=O)(O)OC[C@H]2O[C@@H](n3cnc4c(N)ncnc43)[C@H](O)[C@@H]2O)[C@@H](O)[C@H]1O [A5'ppp5'A, diadenosine 5',5"'-p^1,p3 -triphosphate]
TMV content ([1]; 100 nM, treatment with [Ca^+2] coprecipitation, control 75): 65 ngTMV/ml | TMV content ([1]; 100 nM, treatment without [Ca^+2] coprecipitation, control 56): N.I. | TMV content ([1]; 200 nM, treatment with [Ca^+2] coprecipitation, control 75): 38 ngTMV/ml | TMV content ([1]; 200 nM, treatment without [Ca^+2] coprecipitation, control 56): N.I. | inhibition at 0.1 µM ([1]; 100 nM, treatment with [Ca^+2] coprecipitation): 13% | inhibition at 0.1 µM ([1]; 100 nM, treatment without [Ca^+2] coprecipitation): 0% | inhibition at 0.2 µM ([1]; 200 nM, treatment with [Ca^+2] coprecipitation): 50% | inhibition at 0.2 µM ([1]; 200 nM, treatment without [Ca^+2] coprecipitation): 0% | percent protection as compared to control TMV infected leaves ([2]; 10 nM (10^-8 M), non-treated half-leaf): 80.3% | percent protection as compared to control TMV infected leaves ([2]; 10 nM (10^-8 M), treated half-leaf): 98.6% | percent protection as compared to control TMV infected leaves ([2]; 100 nM (10^-7 M), non-treated half-leaf): 100% | percent protection as compared to control TMV infected leaves ([2]; 100 nM (10^-7 M), treated half-leaf): 100% | induced resistance to TMV infection in the non-treated half-leaf ([2]; 1 μM (10^-6 M), in words): resulted in an induced resistance to TMV infection even in the non-treated half-leaf | percent protection as compared to control TMV infected leaves ([2]; 1000 nM (10^-6 M), non-treated half-leaf): 100% | percent protection as compared to control TMV infected leaves ([2]; 1000 nM (10^-6 M), treated half-leaf): 100% | % Protection [3]: 51% | ng TMV/g of leaves ([3]; control 200): 98 ng TMV/g of leaves
